In publication PMC6332024, “Molecular Cloning and Characterization of a Xanthone Prenyltransferase from Hypericum calycinum Cell Cultures” (Molecules, 2015):

Test system: T1, HcPT
T1 construct: pFastBac1 baculovirus, microsomes of Sf9 insect cells
Experiment: HPLC-DAD prenylation assay with Sf9 microsomes, Lineweaver-Burk
Format: biochemical, Hypericum calycinum
Details: 4 mM MgCl2, 0.5 mM dithiothreitol, 50 mM potassium phosphate pH 7.5, 40 °C, 30 min

| Km (400 µM DMAPP constant) | Km (500 µM 1,3,6,7-tetrahydroxyxanthone constant) | Structure (SMILES) |
| --- | --- | --- |
| 211 ± 16 µM |  | O=c1c2cc(O)c(O)cc2oc2cc(O)cc(O)c12 [1,3,6,7-THX, 1,3,6,7-tetrahydroxyxanthone] |
|  | 87 ± 5 µM | CC(C)=CCOP(=O)(O)OP(=O)(O)O [DMAPP, dimethylallyl diphosphate] |
